# In US8790712B2, “Constitutional function-improving agents” (Cosmo Oil Co., Ltd., priority 2004, dated 2014):
# Columns and labels:
# [1] = system: Mice (35 to 45 weeks old, BALB/cAJc1); assay: Thymus weight of aged mice after 7 days oral ALA hydrochloride (Example 1); type: in vivo, mouse; settings: 10 mg/kg ALA hydrochloride orally once a day for 7 days, average of 5
# Description: Mice (35 to 45 weeks old, BALB/cAJc1) preliminary raised for 1 week were injected with 10 mg of 5-aminolevulinic acid (hereinafter referred to as “ALA”) hydrochloride per kg mouse body weight once a day for 7 days continuously. ALA hydrochloride was adjusted to a concentration of […] with distilled water and orally administered to the mice. After the test, each mouse was sacrificed and the weight of its thymus was measured. The test was carried out using 5 mice per 1 plot, and their values were shown by average value.
# [2] = system: superoxide dismutase (SOD); assay: SOD activity of thymus tissue (Example 3); type: in vivo, mouse; settings: 10 mg/kg orally once a day for 7 days
# Description: Mice (35 to 45 weeks old, BALB/cAJc1) preliminary raised for 1 week were injected with 10 mg of ALA hydrochloride per 1 kg mouse body weight once a day for 7 days continuously. ALA hydrochloride was adjusted to a concentration of […] with distilled water and orally administered to the mice. After the test, each mouse was sacrificed and the thymus of mouse was collected to measure superoxide dismutase (SOD) activity of its tissue. To the collected thymus, 1.0 ml of 0.25 M sucrose solution was added, and the mixture homogenized and then centrifuged at 10,000 G for 10 minutes, and the resulting supernatant solution was used as the enzyme solution. The measurement was carried out using an emission reagent for antioxidant ability measurement, MPEC (2-methyl-6-p-methoxyphenylethynylimidazopyrazinone) (manufactured by Atto Corp.). That is, 250 μl of a reaction solution containing 125 μl of 0.1 M potassium phosphate buffer (pH 7.5), 10 μl of the enzyme liquid, 60 μl of 0.1 unit/ml xanthine oxidase, 45 μl of distilled water and 10 μl of 0.3 mM MPEC was dispensed into Luminescencer-PSN (manufactured by Atto Corp.), 50 μl of 0.72 mM hypoxanthine (pH 7.5) was added for emission. For the calculation of emission inhibition ratio, the buffer was used instead of the enzyme liquid. For the calculation, a calibration curve was prepared using standard SOD, and the concentration calculation was carried out using this.
# The test was carried out using 5 male and 5 female mice, a total of 10 animals, for each plot, and the values were shown by average value. It was confirmed that the SOD activity or GPx activity is improved in both cases of male and female in the ALA-treated plot.
# LW·D piglets = assay: Body weight gain of piglets fed ALA hydrochloride for 6 weeks (Example 8); type: in vivo, pig
# Description: LW·D piglets produced on the same day at a swinery were purchased 3 times, each time for 14 animals (each 7 animals of castrates and females), and subjected to preliminary raising for 9 to 12 days to confirm that their healthy state is normal, and then 12 animals (each 6 animals of castrates and females) were selected for each time and used in the test. The test plots were set to a total of 3 plots of a control plot in which a control feed (Table 8) without adding ALA hydrochloride is provided, and 2 test plots in which 10 ppm or 50 ppm of ALA hydrochloride is added to the feed and provided. The piglets to be tested were divided into 3 groups, each group including 4 animals (each 2 animals of castrates and females), in such a manner that distribution of body weight became almost uniform, and 1 groups was allotted to each plot and raised for 6 weeks. The swinery used in the test was an open type swinery in which a pig chamber of 1.8×2.7 m concrete floor was arranged in a row of 14 chambers, and group feeding was carried out using adjoining 3 pig chambers for each block. Rice straws were used as the bedding. A warm-keeping box was arranged in each pig chamber for 3 weeks after start of the test. The feed and drinking water were constantly provided. Body weight gain was calculated by measuring individual body weight at intervals of 1 week from the start of the test.
# ALA dehydrase (ALAD) = assay: ALAD activity of blood (Example 5); type: in vivo, mouse; settings: male mice, 10 mg/kg orally once a day for 7 days
# Description: Mice (35 to 45 weeks old, BALB/cAJc1) preliminary raised for 1 week were injected with 10 mg of ALA hydrochloride per 1 kg mouse body weight once a day for 7 days continuously. ALA hydrochloride was adjusted to a concentration of […] with distilled water and orally administered to the mice. After the test, each mouse was sacrificed to collect mouse blood, and ALA dehydrase (ALAD) activity (the activity of ALA in which it is dimerized and thereby forms porphobilinogen (hereinafter referred to as “PBG”) as one molecule pyrrole substance) and porphobilinogen deaminase (PBGD) activity (the activity to convert from PBG to hydroxymethylbilane) per 1 ml of the blood were measured. […] To 0.02 ml of heparin-treated mouse whole blood, 0.33 ml of distilled water was added, the mixture was adjusted to a total volume of 0.5 ml by adding thereto 0.05 ml of 0.5 M Na-phosphate buffer (pH 6.4), 0.05 ml of 0.1 M DTT (containing 1 mM ZnSO4) and 0.05 ml of 50 mM ALA hydrochloride and was kept at 37° C. for 30 minutes, the reaction was stopped by adding 0.5 ml of 1 M trichloroacetic acid, and then Ehrlich reagent was added to a supernatant after centrifugation at 3000 rpm in the same volume, and precisely 10 minutes thereafter, absorbance at 553 nm, which is a characteristic absorbance of the compound formed by the reaction of Ehrlich reagent with PBG, was measured (OD) using a spectrophotometer. […]
compound,measurement,setting,value
"NCC(=O)CCC(=O)O [ALA, 5-aminolevulinic acid]",Thymus,[1]; female mice,0.038 g
same,Thymus,[1]; male mice,0.035 g
same,SOD activity,[2]; female mice,30.7 U/ml
same,Total SOD activity,[2]; female mice,31.84 U/organ
same,SOD activity,[2]; male mice,20.2 U/ml
same,Total SOD activity,[2]; male mice,20.95 U/organ
same,"Growth (growth curves, body weight gain)",LW·D piglets; 10 ppm in feed,superior growth than the control plot
same,"Growth (growth curves, body weight gain)",LW·D piglets; 50 ppm in feed,superior growth than the control plot
same,Health state,"LW·D piglets; ALA-treated groups, 10 ppm or 50 ppm in feed",abnormal health state was not fund
same,ALAD activity,ALA dehydrase (ALAD),1.76 μmol PBG/ml RBC/h
